# Experimental data taken from BindingDB's records for doi:10.1016/j.chembiol.2010.05.008 (Kyowa Hakko Kogyo, 2010).
# Molecular target: Nicotinamide phosphoribosyltransferase (Homo sapiens, UniProt P43490)
# Assay: In Vitro Inhibition Assay
# Sequence of Nicotinamide phosphoribosyltransferase (P43490 whole entry): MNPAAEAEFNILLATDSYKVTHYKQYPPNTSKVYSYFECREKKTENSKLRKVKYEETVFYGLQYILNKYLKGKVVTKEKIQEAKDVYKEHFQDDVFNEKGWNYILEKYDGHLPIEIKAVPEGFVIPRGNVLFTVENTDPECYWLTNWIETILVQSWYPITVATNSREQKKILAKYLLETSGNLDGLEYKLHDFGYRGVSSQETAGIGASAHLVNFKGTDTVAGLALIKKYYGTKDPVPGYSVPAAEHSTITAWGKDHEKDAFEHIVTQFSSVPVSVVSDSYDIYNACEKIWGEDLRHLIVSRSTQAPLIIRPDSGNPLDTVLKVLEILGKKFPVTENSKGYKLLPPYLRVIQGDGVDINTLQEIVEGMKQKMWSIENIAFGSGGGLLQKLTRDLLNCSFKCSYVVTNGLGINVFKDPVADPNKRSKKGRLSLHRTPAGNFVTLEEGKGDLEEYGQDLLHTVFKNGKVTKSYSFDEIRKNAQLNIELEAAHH
row,IC50,SMILES
1,0.029 µM,C#CCN(Cc1cc2c(=O)n(C)c(CN3CCN(CCN)CC3)nc2cc1Cl)c1ccc(C(=O)NCc2ccccn2)cc1 [MPI-0482594]
2,0.074 µM,C#CCN(Cc1cc2c(=O)n(C)c(CN3CCN(C)CC3)nc2cc1Cl)c1ccc(C(=O)NCc2ccccn2)cc1 [MPI-0482593]
3,0.00023 µM,C#CCN(Cc1cc2c(=O)n(C)c(CN3CCN(C)CC3)nc2cc1Cl)c1ccc(C(=O)NCc2cccnc2)cc1
